Legend:
human 5-HT2A receptor [1] = target: T1, human 5-HT2A receptor (Homo sapiens (Human), UniProt P28223); assay: Test 1: binding activity for human 5-HT2A receptor ([3H]Ketanserin, CHO cell membrane fraction)
In short: (§1)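 CHO-cell membranes with [3H]ketanserin (5-HT2A) or [3H]spiperone (D2) were incubated with compound for 60 min at room temperature, then filtered, and bound radioactivity was counted by scintillation. Ki = IC50/(1+S/Kd), with ligand Kd from saturation binding on the same membranes.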

[2] = Test 5: predictive test of human half-life (monkey distribution volume, serum unbound fraction, microsomal stability); type: in vivo; conditions: predicted from cynomolgus monkey distribution volume (i.v.), serum unbound fraction and human hepatic microsome stability
Method: Test 5: Predictive Test of Human Half-Life
The present compound was intravenously administered to cynomolgus monkey as an aqueous solution in 0.01 mol/L hydrochloric acid. Blood was collected on 5 minutes, 15 minutes, 30 minutes, 1 hour, 2 hours, 4 hours, 6 hours, and 24 hours after the administration. Plasma was obtained from the collected blood, the drug concentration in the plasma was measured by LC-MS, and the distribution volume of monkey was calculated from the transition of the concentration.
The unbound fraction rate of the present compound in human or monkey serum was measured by equilibrium dialysis method.
The half-life in human was calculated according to the following formula using the results of the distribution volume of monkey, the unbound fraction rate in human or monkey serum, and the metabolic stability in human hepatic microsome obtained in Test 3.

hERG channel [3] = target: T2, hERG channel (Homo sapiens (Human), UniProt Q12809); assay: Test 6-1: inhibitory activity for hERG channel (auto patch clamp, Qpatch); type: cell-based; conditions: for IC50: whole cell auto patch clamp, hERG-CHO cells, read-out: hERG inhibition IC50; for hERG inhibition IC50 (nmol/L)/5-HT1A Ki (nmol/L): ratio of hERG IC50 to 5-HT1A Ki; for hERG inhibition IC50 (nmol/L)/5-HT2A Ki (nmol/L): ratio of hERG IC50 to 5-HT2A Ki
In short: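 Whole-cell patch clamp on an automated system using CHO cells stably expressing human hERG (IKr); 15 s pulse interval. Four increasing compound concentrations applied cumulatively; mean peak tail current from last 3 stimulations per concentration used. IC50 from inhibition versus pre-compound current, fitted by Hill equation.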

human 5-HT2A receptor [4] = target: T1, human 5-HT2A receptor; assay: Test 3: antagonist activity for human 5-HT2A receptor (aequorin luminescence, CHO-K1 cells); type: cell-based; conditions: CHO-K1 cells, 1 nmol/L 5-HT
In short: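 CHO-K1 cells transiently co-expressing aequorin, Gα16 and receptor; compound in DMSO added and luminescence recorded on FDSS/μCELL.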

[5] = Test 4: metabolic stability test in human hepatic microsome; type: in vitro ADME; conditions: 0.1 mg/mL microsome, 0.1 μmol/L compound, 37° C., 30 minutes
In short: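 Compound at 0.1 μmol/L incubated 30 min at 37° C with human liver microsomes (0.1 mg/mL) and NADPH (3.2 mmol/L) in 25 mmol/L phosphate buffer, pH 7.4. Residual compound measured by LC-MS; stability (mL/min/mg protein) = −LN(residual ratio)/30/0.1.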

human 5-HT1A receptor [6] = target: T3, human 5-HT1A receptor (Homo sapiens (Human), UniProt P08908); assay: Test 2: agonist activity for human 5-HT1A receptor ([35S]GTPγS binding); type: biochemical; conditions: for Emax at 10 µM: agonist activity in the presence of 10 μM of compound, relative to 100 μmol/L 5-HT; for EC50: [35S]GTPγS binding, concentration at which half the activity of Emax was obtained
In short: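 Membranes from CHO cells expressing human 5-HT1A incubated with compound, GDP-containing buffer and [35S]GTPγS for 60 min at room temperature. Bound radioactivity collected by glass-fibre filtration and counted by liquid scintillation; agonist activity derived from a formula.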

human 5-HT1A receptor [7] = target: T3, human 5-HT1A receptor; assay: Test 1: binding activity for human 5-HT1A receptor ([3H]8-OH-DPAT, CHO cell membrane fraction)
In short: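 Membranes incubated with [3H]8-OH-DPAT and compound for 60 min at room temperature, then filtered on polyethylenimine-coated glass-fibre plates and counted by liquid scintillation. IC50 from Hill analysis; Ki = IC50/(1+S/Kd), Kd from saturation binding on the same membranes.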

human D2 receptor = human D2 receptor (Homo sapiens (Human), UniProt P14416); assay: Test 1: binding activity for human D2 receptor ([3H]Spiperone, CHO cell membrane fraction); conditions: for Ki: human D2 receptor, [3H]Spiperone
In short: as §1

P-gp (MDR1) = P-gp (MDR1) (Homo sapiens (Human), UniProt P08183); assay: Test 9: P-gp substrate property (NFR, MDCKII and MDR1-MDCKII cells); type: in vitro ADME; conditions: Net Flux Ratio, MDR1-MDCKII vs MDCKII cells
Method: […]
NFR (Net Flux Ratio), which is an index of P-gp substrate property, can be calculated as follows. MDCKII (Madin-Darby canine kidney strain II) cells and MDR1-MDCKII cells in which MDR1 (multidrug resistance protein 1) was overexpressed were used to measure an apparent permeability coefficient (Papp A-B) from lumen (A) to basement membrane (B) and an apparent permeability coefficient (Papp B-A) from basement membrane (B) to lumen (A) of both MDCKII cells and MDR1-MDCKII cells. NFR (Net Flux Ratio) was calculated from the ratio between Ratio (Papp B-A/Papp A-B) of an apparent permeability coefficient of MDR1-MDCKII cells and Ratio of an apparent permeability coefficient of MDCKII cells.

hERG channel [8] = target: T2, hERG channel; assay: Test 6-2: inhibitory activity for hERG channel (auto patch clamp, Qube); type: cell-based; conditions: Test 6-2, hERG-CHO cells, whole cell patch clamp; read-out: hERG inhibition IC50
Method: Extracellular fluid: 2 mmol/L CaCl2, 1 mmol/L MgCl2, 10 mmol/L HEPES, 4 mmol/L KCl, 145 mmol/L NaCl, 10 mmol/L Glucose
(Measurement of Current Value and Data Analysis)
The cell suspension, the extracellular fluid, the intracellular fluid, and the measurement plate were set in the auto patch clamp system, and hERG current was measured by whole cell patch clamp method. […] Each pulse interval was 15 seconds. […] The test was carried out by applying incrementally 4 concentrations of each test compound, and the average of the maximum peak tail currents which were obtained from the last 3 stimulations in each concentration was determined as the evaluated data. Based on the current inhibition rate for a pre-applied current at each concentration of each test compound, IC50 value was calculated by Hill equation with the software.

Chain of human D2 receptor (P14416 whole entry): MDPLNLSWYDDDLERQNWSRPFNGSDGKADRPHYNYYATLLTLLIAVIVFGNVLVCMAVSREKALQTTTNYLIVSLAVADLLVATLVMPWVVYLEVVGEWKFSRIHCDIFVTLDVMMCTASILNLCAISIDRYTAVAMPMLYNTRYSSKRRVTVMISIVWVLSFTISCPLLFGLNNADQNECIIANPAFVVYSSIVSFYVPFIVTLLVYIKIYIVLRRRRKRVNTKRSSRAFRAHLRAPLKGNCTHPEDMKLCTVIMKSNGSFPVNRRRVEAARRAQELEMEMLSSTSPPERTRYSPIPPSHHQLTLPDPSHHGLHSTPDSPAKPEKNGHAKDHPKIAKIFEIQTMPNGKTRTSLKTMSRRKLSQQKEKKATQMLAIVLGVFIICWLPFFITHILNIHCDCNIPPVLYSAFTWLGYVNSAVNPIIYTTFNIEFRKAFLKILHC
T1 sequence (P28223 whole entry): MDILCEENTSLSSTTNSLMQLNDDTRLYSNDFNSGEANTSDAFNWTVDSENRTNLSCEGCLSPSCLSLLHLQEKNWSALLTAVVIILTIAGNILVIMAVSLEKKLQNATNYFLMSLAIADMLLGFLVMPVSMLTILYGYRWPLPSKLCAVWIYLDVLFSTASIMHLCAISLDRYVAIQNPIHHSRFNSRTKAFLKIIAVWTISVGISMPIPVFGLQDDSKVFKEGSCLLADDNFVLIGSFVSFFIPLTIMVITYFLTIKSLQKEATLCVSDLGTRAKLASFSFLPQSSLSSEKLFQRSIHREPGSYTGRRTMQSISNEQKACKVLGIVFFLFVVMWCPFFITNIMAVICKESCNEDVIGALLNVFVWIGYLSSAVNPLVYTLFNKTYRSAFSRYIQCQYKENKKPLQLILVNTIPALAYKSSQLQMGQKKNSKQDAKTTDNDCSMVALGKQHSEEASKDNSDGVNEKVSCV
T2 sequence (Q12809 whole entry): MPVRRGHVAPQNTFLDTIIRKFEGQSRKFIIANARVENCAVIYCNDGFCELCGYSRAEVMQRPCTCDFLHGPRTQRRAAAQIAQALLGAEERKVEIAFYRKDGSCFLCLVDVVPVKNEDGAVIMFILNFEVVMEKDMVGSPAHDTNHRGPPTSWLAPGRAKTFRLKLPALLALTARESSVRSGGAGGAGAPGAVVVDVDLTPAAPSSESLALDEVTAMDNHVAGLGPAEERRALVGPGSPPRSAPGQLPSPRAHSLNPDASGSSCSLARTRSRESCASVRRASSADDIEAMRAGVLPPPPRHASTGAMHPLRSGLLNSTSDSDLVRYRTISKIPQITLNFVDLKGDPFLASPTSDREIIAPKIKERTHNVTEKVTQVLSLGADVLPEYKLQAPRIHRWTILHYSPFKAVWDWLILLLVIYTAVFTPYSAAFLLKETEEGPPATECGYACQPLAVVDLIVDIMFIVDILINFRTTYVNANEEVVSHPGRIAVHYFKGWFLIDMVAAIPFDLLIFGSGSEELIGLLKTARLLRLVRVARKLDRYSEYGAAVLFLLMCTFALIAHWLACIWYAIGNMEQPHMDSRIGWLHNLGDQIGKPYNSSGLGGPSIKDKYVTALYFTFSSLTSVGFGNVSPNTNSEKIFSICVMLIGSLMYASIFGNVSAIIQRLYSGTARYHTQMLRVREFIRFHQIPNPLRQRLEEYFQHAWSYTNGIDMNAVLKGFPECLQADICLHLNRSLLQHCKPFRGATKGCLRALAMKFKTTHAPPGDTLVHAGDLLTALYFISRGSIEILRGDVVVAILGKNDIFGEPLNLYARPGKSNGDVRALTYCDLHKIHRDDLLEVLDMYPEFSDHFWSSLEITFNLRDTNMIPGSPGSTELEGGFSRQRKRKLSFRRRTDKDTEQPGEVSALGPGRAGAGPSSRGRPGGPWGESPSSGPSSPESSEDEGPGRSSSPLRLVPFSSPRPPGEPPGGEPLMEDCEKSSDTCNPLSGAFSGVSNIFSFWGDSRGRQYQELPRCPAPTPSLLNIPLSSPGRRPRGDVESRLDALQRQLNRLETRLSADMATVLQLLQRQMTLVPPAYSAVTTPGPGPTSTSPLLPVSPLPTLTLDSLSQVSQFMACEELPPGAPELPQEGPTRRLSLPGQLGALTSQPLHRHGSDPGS
T3 sequence (P08908 whole entry): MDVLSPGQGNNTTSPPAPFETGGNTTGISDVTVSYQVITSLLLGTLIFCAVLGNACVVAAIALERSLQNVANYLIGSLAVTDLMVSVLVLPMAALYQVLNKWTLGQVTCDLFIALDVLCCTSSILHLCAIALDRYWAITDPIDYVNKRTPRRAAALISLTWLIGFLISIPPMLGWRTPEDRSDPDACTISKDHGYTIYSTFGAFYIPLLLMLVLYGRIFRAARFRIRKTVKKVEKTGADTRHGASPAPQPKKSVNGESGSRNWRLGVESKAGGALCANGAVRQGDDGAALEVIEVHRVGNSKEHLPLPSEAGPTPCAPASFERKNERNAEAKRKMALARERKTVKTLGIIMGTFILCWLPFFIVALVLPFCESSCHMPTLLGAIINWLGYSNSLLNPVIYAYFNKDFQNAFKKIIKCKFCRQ
Chain of P-gp (MDR1) (P08183 whole entry, species assumed): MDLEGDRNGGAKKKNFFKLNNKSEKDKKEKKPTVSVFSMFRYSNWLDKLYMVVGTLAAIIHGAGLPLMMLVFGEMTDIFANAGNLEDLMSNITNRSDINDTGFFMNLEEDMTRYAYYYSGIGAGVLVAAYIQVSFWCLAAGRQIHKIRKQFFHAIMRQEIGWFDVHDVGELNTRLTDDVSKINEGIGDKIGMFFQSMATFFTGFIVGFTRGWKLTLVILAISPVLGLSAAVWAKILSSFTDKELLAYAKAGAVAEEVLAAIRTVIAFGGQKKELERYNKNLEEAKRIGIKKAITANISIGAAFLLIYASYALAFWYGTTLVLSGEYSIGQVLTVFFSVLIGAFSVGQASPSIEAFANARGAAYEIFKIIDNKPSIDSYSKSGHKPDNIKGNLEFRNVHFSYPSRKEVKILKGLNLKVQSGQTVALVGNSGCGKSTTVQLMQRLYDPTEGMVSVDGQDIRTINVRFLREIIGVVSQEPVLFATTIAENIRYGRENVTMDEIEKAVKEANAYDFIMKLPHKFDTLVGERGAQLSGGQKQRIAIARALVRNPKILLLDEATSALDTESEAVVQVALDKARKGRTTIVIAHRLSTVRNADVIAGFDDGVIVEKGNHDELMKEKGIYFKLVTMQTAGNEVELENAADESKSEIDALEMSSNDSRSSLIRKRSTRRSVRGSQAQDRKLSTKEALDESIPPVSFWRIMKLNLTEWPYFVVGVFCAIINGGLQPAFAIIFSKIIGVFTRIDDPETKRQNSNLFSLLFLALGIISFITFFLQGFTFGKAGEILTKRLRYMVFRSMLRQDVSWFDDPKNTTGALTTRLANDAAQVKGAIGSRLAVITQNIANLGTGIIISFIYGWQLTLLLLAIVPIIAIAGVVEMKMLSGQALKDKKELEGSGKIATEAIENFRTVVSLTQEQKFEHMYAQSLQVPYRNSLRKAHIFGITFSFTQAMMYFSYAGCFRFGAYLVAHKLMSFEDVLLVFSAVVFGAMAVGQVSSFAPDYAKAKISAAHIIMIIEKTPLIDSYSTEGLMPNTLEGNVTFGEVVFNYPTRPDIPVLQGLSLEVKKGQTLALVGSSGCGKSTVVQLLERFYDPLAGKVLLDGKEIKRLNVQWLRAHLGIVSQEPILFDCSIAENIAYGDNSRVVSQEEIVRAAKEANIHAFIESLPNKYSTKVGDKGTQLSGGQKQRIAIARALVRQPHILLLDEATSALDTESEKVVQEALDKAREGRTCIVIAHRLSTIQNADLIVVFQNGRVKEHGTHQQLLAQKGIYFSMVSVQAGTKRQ

SMILES	Ki (human 5-HT2A receptor [1]) [nM]	half-life [2] [min]	IC50 (hERG channel [3]) [µM]	IC50 (human 5-HT2A receptor [4]) [nM]	Metabolic stability in human hepatic microsome [5] [mL/min/mg protein]	Emax at 10 µM (human 5-HT1A receptor [6]) [%]	Ki (human 5-HT1A receptor [7]) [nM]	Ki (human D2 receptor) [nM]	EC50 (human 5-HT1A receptor [6]) [nM]	hERG inhibition IC50 (nmol/L)/5-HT1A Ki (nmol/L) (hERG channel [3])	hERG inhibition IC50 (nmol/L)/5-HT2A Ki (nmol/L) (hERG channel [3])	NFR (P-gp (MDR1))	D2 Ki/5-HT1A Ki (human D2 receptor; selectivity ratio)	D2 Ki/5-HT2A Ki (human D2 receptor; selectivity ratio)	IC50 (hERG channel [8]) [nM]
Cn1ncc2c1CCCN(CCN1CCN(c3noc4ccccc34)CC1)C2=O [Example 80]	2.8	600	15.4	55	0.012	63	–	–	–	–	–	–	–	–	–
Cc1cc2c(cn1)C(=O)N(CCN1CCN(c3noc4ccccc34)CC1)CC2 [Example 3, 2-{2-[4-(1,2-Benzoisoxazol-3-yl)piperazin-1-yl]ethyl}-6-methyl-3,4-dihydro-2,7-naphthyridin-1(2H)-one]	–	> 1800	7.9	–	<0.01	69	2.7	1260	10.1	–	–	–	–	–	–
Cn1ncc2c1CCCN(CCN1CCC(c3noc4ccccc34)CC1)C2=O [Example 43]	0.93	–	2.1	6.52	<0.01	73	1.3	222	8.5	1630	2274	2.2	171	239	–
Cc1nn(C)c2c1C(=O)N(CCN1CCC(c3noc4ccccc34)CC1)CCC2 [Example 91]	–	–	–	–	<0.05	46	0.57	103	8.74	–	–	–	–	–	1800
Cc1nn(C)c2c1C(=O)N(CCN1CCN(c3noc4ccccc34)CC1)CCC2 [Example 92]	–	–	–	–	0.065	43	5.19	738	76.2	–	–	–	–	–	> 10000
Cn1cnc2c1CCN(CCN1CCN(c3nsc4ccccc34)CC1)C2=O [Example 54]	–	–	> 10	13	<0.01	55	–	–	38.4	>3637	>1538	6.6	–	–	–
Cc1c2c(nn1C)CCN(CCN1CCC(c3noc4ccccc34)CC1)C2=O [Example 37, 5-{2-[4-(1,2-Benzoisoxazol-3-yl)piperidin-1-yl]ethyl}-2,3-dimethyl-2,5,6,7-tetrahydro-4H-pyrazolo[4,3-c]pyridin-4-one]	–	480	1	–	0.017	71	2.68	267	35	–	–	–	–	–	–

Reference: patent US10745401B2, “Condensed lactam derivative” (Sumitomo Dainippon Pharma Co., Ltd., priority 2018, dated 2020)
